Results as given in US20070212331A1, “Methods and compositions for selectively killing cells” (priority 2006, published 2007).
Entries after “also recorded” stand apart in the source; their conditions may differ. Read-outs that look alike come from different tables or passages of the source. Where a SMILES comes first, the peptide text is derived from it. The star is where a group is joined. Cbz = O=C(OCc1ccccc1)*; CH2F = FC*

Assays:
[1] = test system: PC12 cells; assay: Zinc-induced cell death of PC12 cells; assay type: cell-based; design: cell lysis (indicative of necrosis) of PC12 cells: dose or concentration left out as unconfirmed; settings: for effect on cell viability: high (mM) concentrations
[2] = test system: IIC9 cells (embryonic fibroblasts); assay: IIC9 cell death by trypan blue uptake; assay type: cell-based; settings: for effect on cell viability: high (mM) concentrations; for attenuation of zinc-induced cell death: Z-VAD preincubation; for cell death: 6 h (FIG. 1A)
[3] = test system: ERK1/2; assay: ERK1/2 activation in IIC9 cells, Western blot with anti-pERK antibody; assay type: cell-based; design: time until ERK activation is detected after zinc addition / time ERK activation remains elevated: dose or concentration left out as unconfirmed; settings: for effect of inhibitor on ERK activation by zinc: IIC9 cells preincubated with inhibitor
Experimental: (§1) Assays: ERK1/2 activation was determined by harvesting cells directly in boiling SDS-PAGE sample buffer and probing corresponding Western Blots with anti-pERK antibody (Cell Signaling). Blots were stripped and reprobed for total ERK (Cell Signaling). Ras activation was determined using the Raf-RBD assay (21,24). Identification of the specific Ras isoform activated was determined by probing the western blot with isoform-specific antibody (Upstate Biotechnology). Transfection of IIC9 cells was carried out using Novafector. Transfection efficiency of these cells is approximately 90%. The constructs for expression of dn-Ras and Bcl-Xl were kindly provided by Dr. J. Corbett and Dr. Chinnaduri (SLU).

[4] = test system: ERK; assay: ERK activation (pERK) in PC12 cells; assay type: cell-based
[5] = test system: IIC9 cells (embryonic fibroblasts); assay: IIC9 cell morphology, microscopic examination; assay type: cell-based
Experimental: FIG. 1 depicts zinc-induced cell death in a time and dose dependent manner. (A) IIC9 cells (embryonic fibroblasts) were serum starved for 2 days and treated with the indicated concentrations of zinc for the indicated time periods. Cell death was monitored by trypan blue exclusion as described in the Materials and Methods. (B-D) Zinc-induced cell death is accompanied by morphological changes associated with apoptosis and necrosis. Shown are cells that were incubated with either 50 μM (C) or 200 μM (D) zinc for 6 hours. Control cells (B) were untreated. Cells were examined microscopically for changes in cell shape and size. […] Cell debris, indicative of cell lysis, was evident.
Cells and Incubation Conditions: IIC9 cells were grown in DMEM containing 10% FCS, P/S. Cells were plated in 12-well plates and grown to approximately 70% confluency. At that time, cells were serum arrested by changing the medium to DMEM (low glucose) without FCS. After 48 hours, cells were treated with zinc as described in the text. Cell death was quantified by trypan blue uptake. Cells were incubated with trypan blue (0.04%) for 5 min. Cells were examined microscopically and the number of blue cells and total cells were counted. Four fields were examined for each condition, with a minimum of 100 cells/field. To examine the effects of selective inhibitors, cells were preincubated with the indicated compound for 30 min. prior to zinc treatment.

[6] = test system: Ras; assay: Ras activation in IIC9 cells, Raf-RBD pull-down assay; assay type: cell-based; settings: for Ras isoform activated: isoform-specific antibody
Experimental: as §1
Because Ras is a common upstream activator of ERK1/2 (36), we reasoned that zinc may induce the phosphorylation of ERK1/2 via Ras. This was examined by incubating IIC9 cells with 100 uM zinc and assessing Ras activation by RBD pull-down of GTP-Ras followed by Western blot analysis with a pan-Ras antibody. […] The critical role of Ras in mediating the effects of zinc was confirmed by examining the effect of over-expression of dnRas. […] Consistent with Ras as the upstream activator of the cytotoxic effect of zinc on IIC9, expression of dn H-Ras also attenuates zinc-mediated cell death (FIG. 5B).

[7] = test system: N18TG2 (neuroblastoma) cells; assay: Zinc-induced death of N18TG2 (neuroblastoma) cells; assay type: cell-based; settings: 24 h incubation
Experimental: Exemplary cell types were treated in vitro with varying amounts of zinc (zinc chloride or zinc sulfate), in the presence or absence of the zinc ionophore pyrithione. […] Cell death involves both apoptosis and necrosis as determined by morphological observation.

[8] = test system: PC3 cells (prostate cancer cell line); assay: Killing of PC3 cells by zinc and zinc-containing liposomes; assay type: cell-based; settings: PC3 cells in culture (FIG. 6)
Experimental: These cells express high levels of the transferrin receptor and can be targeted by covalently attaching transferrin to the formed liposomes.
We next tested the ability of these liposomes to kill PC3 cells in culture (FIG. 6).
Non-prophetically, zinc containing liposomes were prepared by injecting ethanolic solutions of lipids into 10 mM Hepes buffer pH 6 containing 2.5 M ZnCl2. To make the ethanolic lipid solution, lipids initially dissolved in chloroform were dried by passing gaseous nitrogen over the solution. The dried lipids were dissolved in ethanol at a concentration of […] of phospholipids per mL of alcohol. The alcoholic lipid solution containing dioleoyl phosphatidyly choline, 1,2 dioleoyl phosphatidyly ethanolamine, 1,2 dioleolyl phosphatidyletanolamine-N-4-(p-maleimido-phenyl)butyramide) and cholesterol in a ratio of 7:2:0.05:1 was slowly (0.5 ml/min) injected through a Hamilton syringe into 3 mL of a magnetically stirred Hepes buffer, containing 2.5 mM ZnCl2 The final concentration of ethanol was between 2.5-7.5%. During injection of the lipids, the solution was constantly stirred by a standard magnetic stirrer. To ensure that the temperature of the liposome solution was well above the phase transition of the lipids, the temperature was kept at […]. […]

[9] = test system: RAW (macrophage) cells; assay: Zinc-induced death of RAW (macrophage) cells; assay type: cell-based
Experimental: Exemplary cell types were treated in vitro with varying amounts of zinc (zinc chloride or zinc sulfate), in the presence or absence of the zinc ionophore pyrithione.

[10] = test system: CD4+ CD8+ alpha beta TCR10CD3(10) thymocytes; settings: 80-200 μM zinc; cited from earlier work
[11] = PC12 cells, same range of concentrations as zinc
[12] = IIC9 cells, same range of concentrations as zinc

Q: What does the source list for `[Ca]` [Ca]?
A: effect on cell viability ([1]; PC12 cells): no effect on cell viability; effect on cell viability ([2]; IIC9 cells): no effect on cell viability

Q: For `[Cd]` [Cd], which “cell death (apoptosis or necrosis) by metal salts” value (shortened to “cell death (apoptosis or necrosis)”) [1, 11] is on record?
A: Its value is “did result in cell death”.

Q: What does the source list for `[Cl-].[Cl-].[Co+2]` [CoCl2]?
A: cell death (apoptosis or necrosis) by metal salts [1]: No cell death; cell death by metal salts [2]: does not result in the cell death

Q: Which “cell death (apoptosis or necrosis)” value [1, 11] does the source give for `O=S(=O)([O-])[O-].[Cu+2]` [CuSO4] here?
A: The value was “No cell death”.

Q: And the “cell death by metal salts” value [2, 12]?
A: Its value is “does not result in the cell death”.

Q: Which “effect on cell viability” value ([1]; PC12 cells) does the source give for `[Li]` [Li] here?
A: Its value is “no effect on cell viability”.

Q: And the “effect on cell viability” value ([2]; IIC9 cells)?
A: Its value is “no effect on cell viability”.

Q: With `[Mg]` [Mg] as the molecule, how does the “effect on cell viability” value ([1]; PC12 cells) read?
A: Its value is “no effect on cell viability”.

Q: What about the “effect on cell viability” value ([2]; IIC9 cells) of the same molecule?
A: The value was “no effect on cell viability”.

Q: With `[Mn]` [Mn] as the molecule, how does the “effect on cell viability” value ([1]; PC12 cells) read?
A: The value was “no effect on cell viability”.

Q: And the “effect on cell viability” value ([2]; IIC9 cells)?
A: The value was “no effect on cell viability”.

Q: With `[Cl][Ni][Cl]` [NiCl2] as the molecule, how does the “cell death (apoptosis or necrosis)” value [1, 11] read?
A: Its value is “No cell death”.

Q: What about the “cell death by metal salts” value [2, 12] of the same molecule?
A: The value was “does not result in the cell death”.

Q: Which “effect of inhibitor on ERK activation by zinc” value [3] does the source give for `COc1cc2ncnc(Nc3cccc(Br)c3)c2cc1OC` [PD153035] here?
A: Its value is “does not alter ERK activation”.

Q: Which “effect of inhibitor on ERK activation by zinc” value [3] does the source give for `CC(C)(C)n1nc(-c2ccc(Cl)cc2)c2c(N)ncnc21` [PP2] here?
A: The value was “does not inhibit zinc activation of ERK1/2”.

Q: Which “effect of preincubation with inhibitor on zinc-mediated cell death” value ([2]; 30 min preincubation, then 50 μM zinc (FIG. 2A)) does the source give for `C[S+]([O-])c1ccc(-c2nc(-c3ccncc3)c(-c3ccc(F)cc3)[nH]2)cc1` (stereo not shown) [SB203580] here?
A: The value was “does not affect zinc-mediated cell death”.

Q: What does the source list for `N#CC(=C(/N)Sc1ccccc1N)/C(C#N)=C(\N)Sc1ccccc1N` [U0126]?
A: effect of preincubation on zinc-induced cell death [1]: greatly attenuated; cell death in cells pretreated with inhibitor [2]: Little or no death; effect of preincubation with inhibitor on zinc-mediated cell death [2]: inhibits zinc-induced cell death; effect of preincubation on zinc-induced ERK activation ([4]; PC12 cells preincubated with inhibitor): attenuated that activation; effect of inhibitor on ERK activation by zinc [3]: significantly reduces ERK activation; also recorded: significantly reduced; effect on morphological changes induced by zinc ([5]; cells preincubated with inhibitor, 50 μM zinc (FIG. 2B-D)): limited; also recorded: prevented the morphological changes

Q: With `CC(NC(=O)C(NC(=O)OCc1ccccc1)C(C)C)C(=O)NC(CC(=O)O)C(=O)CF` (stereo not drawn) [Z-VAD] (Cbz-Val-Ala-Asp-CH2F; configuration not given here) as the molecule, how does the “cell death in cells pretreated with Z-VAD” value ([2]; 50 μM zinc, first 6 hours of zinc treatment) read?
A: The value was “little cell death”.

Q: And the “attenuation of zinc-induced cell death” value ([2]; 50 μM zinc, 21 h)?
A: The value was 50%.

Q: What about the “attenuation of zinc-induced cell death” value ([2]; 100 μM zinc, 21 h) of the same molecule?
A: Its value is “limited attenuation”.

Q: What about the “attenuation of zinc-induced cell death” value ([2]; 100 μM zinc, first 6 hours) of the same molecule?
A: Its value is “approximately 50%”.

Q: What about the “effect of Z-VAD on zinc-mediated cell death” value ([2]; early hours (3-6), indicated zinc concentrations (FIG. 3A)) of the same molecule?
A: Its value is “greatly attenuated death”.

Q: Which results are given for `O=S(=O)([O-])[O-].[Zn+2]` [ZnSO4]?
A: cell death (apoptosis or necrosis) by metal salts [1, 11]: equally effective as ZnCl2; cell death by metal salts [2, 12]: equally effective as ZnCl2

Q: What does the source list for `[Cl-].[Cl-].[Zn+2]` [zinc]?
A: activation of Ras ([6]; IIC9 cells, 100 uM zinc, pan-Ras antibody (FIG. 5A)): ~5 fold; Ras isoform activated ([6]; IIC9 cells): selective activation of H-Ras; % death ([7]; 25 μM zinc): 19%; % death ([7]; 50 μM zinc): 75%; % death ([7]; 75 μM zinc): 84%; % death ([7]; 150 μM zinc): 90%; cell lysis (indicative of necrosis) of PC12 cells ([1]; higher zinc concentrations or longer time periods): significant cell lysis; cell death of PC12 cells ([1]; undifferentiated or differentiated PC12 cells, in vitro): time and dose-dependent cell death; cell death of PC3 cells [8]: underwent cell death; death of the population ([2]; 50 μM zinc, 6-h incubation, experiment of FIG. 2A): approximately 25%; cell death ([2]; 50 μM zinc): ~15%; cell death ([2]; 100 μM zinc): ~25%; cell death ([2]; 200 μM zinc): approximately 45%; extracellular zinc concentration necessary to induce the death pathway ([2]; IIC9 cells, in the absence of pyrithione): ≥ 50 µM; cell death of IIC9 cells ([2]; addition of zinc): time- and concentration-dependent; cell death during the first few hours ([2]; zinc concentrations as high as 200 μM, first few hours): Little or no death; % cell death ([9]; 25 μM zinc, 0.0 hours of incubation): 0.0%; % cell death ([9]; 25 μM zinc, 1.0 hours of incubation): 0.0%; % cell death ([9]; 25 μM zinc, 3.0 hours of incubation): 0.0%; % cell death ([9]; 25 μM zinc, 5.0 hours of incubation): 0.0%; % cell death ([9]; 50 μM zinc, 5.0 hours of incubation): 0.0%; % cell death ([9]; 50 μM zinc, 18.0 hours of incubation): 20.0%; % cell death ([9]; 100 μM zinc, 18.0 hours of incubation): 100.0%; time until pERK could be detected ([4]; PC12 cells, after zinc treatment): within five minutes; time pERK remained at that level ([4]; PC12 cells, longest time period examined): at least five hours; ERK activation ([4]; zinc treatment of PC12 cells): induced ERK activation; induction of pERK ([3]; IIC9 cells, western blotting with pERK antibody (FIG. 2E)): does induce pERK; time until ERK activation is detected after zinc addition ([3]; IIC9 cells, zinc): ≤ 5 min; time ERK activation remains elevated ([3]; IIC9 cells, zinc, longest time period examined): at least 6 h; cell morphology ([5]; 50 μM zinc, 6 hours (FIG. 1C)): rounded and displayed differing degrees of cell shrinkage; cell population displaying a rounded morphology ([5]; 50 μM zinc, first few hours of incubation): approximately 50%; cell morphology ([5]; 200 μM zinc, 6 hours (FIG. 1D)): more varied morphology; cell morphology ([5]; 100 or 200 uM zinc, first few hours): all cells were rounded and underwent differing degrees of cell shrinkage; thymocytes in which apoptosis was induced [10]: 40%

Q: What does the source list for thrombin?
A: activation of Ras ([6]; IIC9 cells stimulated with thrombin, previous finding of the inventors): 3- to 5 fold; Ras isoform activated ([6]; IIC9 cells): rapid activation of N-Ras, followed by a sustained activation of K-Ras
